Structures can show the parent of a compound that is named as a salt.
Assays:
Dopamine D2 receptor = target: T1, Dopamine D2 receptor (Homo sapiens, UniProt P14416); assay: Dopamine D2 receptor binding assay ([125I]iodospiperone); conditions: [125I]iodospiperone 0.1 nM, D2 receptor membranes, 2 hours at room temperature; read-out: Relative D2 Receptor Binding Affinity Ki
T1 construct: purchased Receptor Biology (now owned by NEN) RBHD2CM
Protocol: Serotonin 5-HT6 and Dopamine D2 Binding Assay Protocol
The assay buffers used are 50 mM Tris-HCl pH 7.4, 120 mM NaCl, 5 mM KCl, 5 mM MgCl2, 1 mM EDTA for the Dopamine D2s receptor binding assay. […] The membranes used are from Receptor Biology (now owned by NEN), Cat #RBHD2CM for the D2 receptor.
Compounds are obtained as 10 mM stocks in 100% DMSO. They are diluted to 1 mM in 100% DMSO by adding 180 μL DMSO to 20 μL of stock in 96 well plates using a multidrop. […] This is done using a TECAN robot.
The radioligand is diluted in assay buffer to provide 0.1 nM for the D2 assay. Each vial of membranes is diluted up to 92 mL in assay buffer. The final assay volume is 250 μL consisting of 210 μl of diluted membranes, 20 μL of compound or 10% DMSO for total binding, and 20 μL of diluted radioligand. The compounds are transferred from drug dilution plates into coming 96 well assay plates using a 96 well Multimek pipettor. Radioligand and membranes are added to assay plates using multidrop pipettors. Non-specific binding is determined in wells containing a final concentration of 5 μM haloperidol. The final drug concentration range in half logs is from 10 μM down to 0.1 nM.
After addition of drug, membrane, and ligand, the plates are incubated for 2 hours at room temperature. During this time 96 well Millipore filter plates (MAFBNOB50) are soaked for a least 30 minutes with 200 μL per well of 0.5% polyethyleneimine.
The 0.5% PEI is removed from filterplate wells using a TiterTek MAP aspirator and 200 μL of the incubation mixture is transferred from the incubation plate to the filterplate after mixing. This transfer is done using the 96 tip Mutimek pipettor. After transfer to the filterplate filterplates are extracted and ished twice with 220 μL per well of cold buffer on the MAP aspirator. The peel away bottoms are removed from the filterplates and 60 μL per well of microscint 20 scintillation fluid is added per well using a multidrop. Plates are placed into suitable holders and are left at room temperature for 3 hours and are counted for ^3H in either a Wallac Microbeta counter or on a Packard Topcount.

T1 sequence (P14416 1-414 isoform P14416-2): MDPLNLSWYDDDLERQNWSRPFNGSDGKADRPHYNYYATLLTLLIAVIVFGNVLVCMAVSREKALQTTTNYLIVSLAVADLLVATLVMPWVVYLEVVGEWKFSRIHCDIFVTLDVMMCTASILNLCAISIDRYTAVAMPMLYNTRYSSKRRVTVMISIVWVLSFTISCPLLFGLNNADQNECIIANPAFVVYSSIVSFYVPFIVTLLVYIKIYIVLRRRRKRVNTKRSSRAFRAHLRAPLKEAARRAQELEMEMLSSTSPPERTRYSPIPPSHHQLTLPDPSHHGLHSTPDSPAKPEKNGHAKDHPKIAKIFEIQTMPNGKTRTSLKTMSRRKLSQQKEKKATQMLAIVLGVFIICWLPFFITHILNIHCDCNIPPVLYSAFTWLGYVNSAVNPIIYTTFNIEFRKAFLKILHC

Cc1ccc(C[C@H]2CN(C3=Nc4ccccc4Nc4sc(C)cc43)CCN2)cc1 [Example 69]
Ki (Dopamine D2 receptor): 10 to 100 nM
melting point: 92 to 101 °C

COc1ccccc1C[C@H]1CN(C2=Nc3ccccc3Nc3sc(C)cc32)CCN1C [Example 109]
Ki (Dopamine D2 receptor): < 10 nM
melting point: 81 to 93 °C

Cc1cc2c(s1)Nc1ccccc1N=C2N1CCN[C@@H](CCc2ccccc2)C1 [Example 59, 2-Methyl-10-(S)-(3-phenethyl-piperazin-1-yl)-4H-3-thia-4,9-diazabenzo[f]azulene]
Ki (Dopamine D2 receptor): 10 to 100 nM
melting point: 75 to 84 °C

Cc1cc2c(s1)Nc1ccccc1N=C2N1CCN[C@@H](Cc2ccccc2)C1 [Example 61]
Ki (Dopamine D2 receptor): < 10 nM
melting point: 169 to 170 °C

Cc1cc2c(s1)Nc1ccccc1N=C2N1CCN[C@@H](Cc2ccsc2)C1 [Example 212]
Ki (Dopamine D2 receptor): < 10 nM
melting point: 82 to 94 °C

Cc1cc2c(s1)Nc1ccccc1N=C2N1CCN(C)[C@@H](CCc2ccccc2)C1 [Example 90, 2-Methyl-10-(4-methyl-3-(S)-phenethyl-piperazin-1-yl)-4H-3-thia-4,9-diaza-benzo[f]azulene]
Ki (Dopamine D2 receptor): 10 to 100 nM
melting point: 87 to 91 °C

Cc1cc2c(s1)Nc1ccccc1N=C2N1CCN[C@@H](Cc2cccc(Cl)c2)C1 [Example 87]
Ki (Dopamine D2 receptor): 10 to 100 nM

Cc1cc2c(s1)Nc1ccccc1N=C2N1CCN(C)[C@@H](Cc2ccsc2)C1 [Example 219]
Ki (Dopamine D2 receptor): 10 to 100 nM
melting point: 58 to 72 °C

Cc1cc2c(s1)Nc1ccccc1N=C2N1CCN[C@@H](CCc2ccc(F)cc2)C1 [Example 176, 10-((S)-3-(2-(4-Fluorophenyl)-ethyl)-piperazin-1-yl)-2-methyl-4H-3-thia-4,9-diaza-benzo[f]azulene dihydrochloride]
Ki (Dopamine D2 receptor): 10 to 100 nM

Cc1cc2c(s1)Nc1ccccc1N=C2N1CCN[C@@H](Cc2cccs2)C1 [Example 80]
Ki (Dopamine D2 receptor): < 10 nM
melting point: 95 to 104 °C

COc1ccc(CC[C@H]2CN(C3=Nc4ccccc4Nc4sc(C)cc43)CCN2C)cc1 [Example 185, 10-((S)-3-(2-(4-Methoxy-phenyl)-ethyl)-4-methyl-piperazin-1-yl)-2-methyl-4H-3-thia-4,9-diaza-benzo[f]azulene dihydrochloride]
Ki (Dopamine D2 receptor): 10 to 100 nM

Cc1cc2c(s1)Nc1ccccc1N=C2N1CCN(C)[C@@H](CCCCc2ccccc2)C1 [Example 195, (S)-2-Methyl-10-(3-(4-phenyl-butyl)-4-methyl-piperazin-1-yl)-4H-3-thia-4,9-diaza-benzo[f]azulene, dihydrochloric acid]
Ki (Dopamine D2 receptor): 10 to 100 nM

Cc1cc2c(s1)Nc1ccccc1N=C2N1CCN[C@@H](CCCCc2ccccc2)C1 [Example 194]
Ki (Dopamine D2 receptor): < 10 nM

COc1ccc(C[C@H]2CN(C3=Nc4ccccc4Nc4sc(C)cc43)CCN2)cc1 [Example 77]
Ki (Dopamine D2 receptor): 10 to 100 nM
melting point: 85 to 98 °C

Cc1cc2c(s1)Nc1ccccc1N=C2N1CCN(C)[C@@H](Cc2ccccc2)C1 [Example 92]
Ki (Dopamine D2 receptor): 10 to 100 nM
melting point: 94 to 97 °C

COc1cccc(CC[C@H]2CN(C3=Nc4ccccc4Nc4sc(C)cc43)CCN2)c1 [Example 180, 10-((S)-3-(2-(3-Methoxy-phenyl)-ethyl)-piperazin-1-yl)-2-methyl-4H-3-thia-4,9-diaza-benzo[f]azulene dihydrochloride]
Ki (Dopamine D2 receptor): < 10 nM

COc1ccccc1CC[C@H]1CN(C2=Nc3ccccc3Nc3sc(C)cc32)CCN1C [Example 187, 10-((S)-3-(2-(2-Methoxy-phenyl)-ethyl)-4-methyl-piperazin-1-yl)-2-methyl-4H-3-thia-4,9-diaza-benzo[f]azulene dihydrochloride]
Ki (Dopamine D2 receptor): 10 to 100 nM

Cc1cc2c(s1)Nc1ccccc1N=C2N1CCN[C@@H](Cc2cc(F)cc(F)c2)C1 [Example 88]
Ki (Dopamine D2 receptor): < 10 nM

Cc1cc2c(s1)Nc1ccccc1N=C2N1CCN[C@@H](Cc2ccccc2F)C1 [Example 71]
Ki (Dopamine D2 receptor): < 10 nM
melting point: 84 to 102 °C

COc1cccc(C[C@H]2CN(C3=Nc4ccccc4Nc4sc(C)cc43)CCN2)c1 [Example 76]
Ki (Dopamine D2 receptor): < 10 nM
melting point: 96 to 109 °C

Cc1cccc(C[C@H]2CN(C3=Nc4ccccc4Nc4sc(C)cc43)CCN2)c1 [Example 70]
Ki (Dopamine D2 receptor): < 10 nM
melting point: 80 to 97 °C

COc1ccccc1C[C@H]1CN(C2=Nc3ccccc3Nc3sc(C)cc32)CCN1 [Example 75]
Ki (Dopamine D2 receptor): < 10 nM
melting point: 95 to 109 °C

CC(C)n1nc2c(n1)C(N1CCN(C)[C@@H](CCc3ccccc3)C1)=Nc1ccccc1N2 [Example 595, (S)-2-Isopropyl-10-(4-methyl-3-phenethyl-piperazin-1-yl)-2,4-dihydro-1,2,3,4,9-pentaaza-benzo[f]azulene dihydrochloride hemihydrate]
Ki (Dopamine D2 receptor): 10 to 100 nM

Cc1cc2c(s1)Nc1ccccc1N=C2N1CCN[C@@H](Cc2cccc(F)c2)C1 [Example 72]
Ki (Dopamine D2 receptor): 10 to 100 nM
melting point: 87 to 99 °C

Cc1cc2c(s1)Nc1ccccc1N=C2N1CCN[C@@H](CCc2ccccc2F)C1 [Example 178, 10-((S)-3-(2-(2-Fluoro-phenyl)-ethyl)-piperazin-1-yl)-2-methyl-4H-3-thia-4,9-diaza-benzo[f]azulene dihydrochloride]
Ki (Dopamine D2 receptor): 10 to 100 nM

COc1cccc(CC[C@H]2CN(C3=Nc4ccccc4Nc4sc(C)cc43)CCN2C)c1 [Example 186, 10-((S)-3-(2-(3-Methoxy-phenyl)-ethyl)-4-methyl-piperazin-1-yl)-2-methyl-4H-3-thia-4.9-diaza-benzo[f]azulene dihydrochloride]
Ki (Dopamine D2 receptor): < 10 nM

Cc1cccc(C[C@H]2CN(C3=Nc4ccccc4Nc4sc(C)cc43)CCN2C)c1 [Example 103]
Ki (Dopamine D2 receptor): 10 to 100 nM
melting point: 67 to 83 °C

COc1ccccc1CC[C@H]1CN(C2=Nc3ccccc3Nc3sc(C)cc32)CCN1 [Example 181, 10-((S)-3-(2-(2-Methoxy-phenyl)-ethyl)-piperazin-1-yl)-2-methyl-4H-3-thia-4,9-diaza-benzo[f]azulene dihydrochloride]
Ki (Dopamine D2 receptor): 10 to 100 nM

Cc1cc2c(s1)Nc1ccccc1N=C2N1CCN(C)[C@@H](CCc2ccccc2F)C1 [Example 184, 10-((S)-3-(2-(2-Fluoro-phenyl)-ethyl)-4-methyl-piperazin-1-yl)-2-methyl-4H-3-thia-4,9-diaza-benzo[f]azulene dihydrochloride]
Ki (Dopamine D2 receptor): 10 to 100 nM

Cc1cc2c(s1)Nc1ccccc1N=C2N1CCN[C@@H](Cc2ccc(Cl)cc2)C1 [Example 85]
Ki (Dopamine D2 receptor): < 10 nM
melting point: 91 to 108 °C

From patent publication US7214673B2, “Piperazine substituted aryl benzodiazepines and their use as dopamine receptor antagonists for the treatment of psychotic disorders” (Eli Lilly and Company, priority 2002, dated 2007)
